Results as given in PubChem BioAssay (NCI).
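Cultured in 96-well plates, cells were exposed to test compound for 48 hours across five concentrations. GI50: concentration for 50% inhibition of growth. Definition used: TGI = concentration required for complete inhibition of growth.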

What was measured:
Experiment in all cases: NCI-60 cell line screen, 48 h
[1] = tested on: SK-MEL-2 melanoma
[2] = tested on: NCI-H460 lung
[3] = tested on: NCI-H226 lung
[4] = tested on: CCRF-CEM leukemia
[5] = tested on: ACHN renal
[6] = tested on: SF-295 CNS
[7] = tested on: CAKI-1 renal
[8] = tested on: MCF7 breast
[9] = tested on: MOLT-4 leukemia
[10] = tested on: K-562 leukemia

Row | Structure (SMILES) | TGI [1] | GI50 [2] | TGI [2] | TGI [3] | TGI [4] | GI50 [5] | TGI [5] | GI50 [6] | TGI [6] | TGI [7] | TGI [8] | GI50 [9] | GI50 [10] | GI50 [1] | GI50 [3] | GI50 [4] | GI50 [7] | GI50 [8] | TGI [9] | TGI [10]
1 | C[C@]12CC[C@@H]3c4cc(OCC(F)(F)F)c(O)cc4/C(=N/O)C[C@H]3[C@@H]1CC[C@@H]2O | 0.852 µM | 0.0362 µM | 3.79 µM | > 40.8 µM | < 0.0292 µM | 0.065 µM | > 64 µM | 0.0611 µM | 1.95 µM | > 66.6 µM | 33.9 µM | 0.0575 µM | 0.0213 µM | – | – | – | – | – | – | –
2 | O=S(=O)(Nc1cc(Sc2cccc3cccnc23)c(O)c2ccccc12)c1ccccc1 | 13.4 µM | 0.499 µM | 13.7 µM | 25.4 µM | 16 µM | 0.772 µM | 5.54 µM | 2.84 µM | 15 µM | 10.1 µM | 2.85 µM | 0.546 µM | 0.929 µM | 2.48 µM | 2.45 µM | 0.426 µM | 1.97 µM | 0.52 µM | 5.53 µM | 16.5 µM
3 | CCCCON(OC(=O)c1ccc2ccc3cccc4ccc1c2c34)C(C)=O | 68.9 µM | 32.1 µM | > 100 µM | 53.3 µM | 41.4 µM | 21.7 µM | 51.6 µM | 30.3 µM | > 100 µM | 32.6 µM | 68.9 µM | 17.4 µM | 20.9 µM | 23.9 µM | 21 µM | 16.3 µM | 14.4 µM | 26.3 µM | 37.2 µM | 50.2 µM
4 | Cc1ccc2[nH]c(O)c(N=Nc3ccc(S(N)(=O)=O)cc3)c2c1 | > 25 µM | 6.86 µM | > 25 µM | > 25 µM | > 25 µM | 9.74 µM | > 25 µM | > 14.9 µM | > 25 µM | > 25 µM | > 25 µM | > 21.5 µM | 13.8 µM | > 25 µM | 7.92 µM | 15.6 µM | 17.8 µM | 8.4 µM | > 25 µM | > 25 µM
5 | C=C1C(=O)OC2/C=C(\COC(C)=O)CCC(OC(C)=O)C3=CC(OC3=O)C12 (stereo unspecified) | 14.7 µM | – | 37.8 µM | 46.4 µM | 4.63 µM | – | 9.13 µM | – | 32.6 µM | 10.1 µM | 15.5 µM | – | – | – | – | – | – | – | 5.74 µM | 7.63 µM
6 | C=CC[C@]12C=C(OC)[C@@H](O)[C@](OC)(C(c3cc(OC)c4c(c3)OCO4)[C@H]1C)[C@H]2OC(C)=O (stereo partly specified) | > 100 µM | – | > 100 µM | > 100 µM | > 100 µM | – | > 100 µM | – | > 100 µM | > 100 µM | > 100 µM | – | – | – | – | – | – | – | > 100 µM | > 100 µM
7 | CCSc1nc(SCC)c2cn[nH]c2n1 | > 100 µM | 31.9 µM | > 100 µM | > 100 µM | > 100 µM | 44.3 µM | > 100 µM | > 100 µM | > 100 µM | 74.6 µM | > 100 µM | > 100 µM | 67.1 µM | 61.5 µM | 25.6 µM | 41.5 µM | 22.9 µM | 26.5 µM | > 100 µM | > 100 µM
8 | O=C(/C=C\c1ccc(NCc2ccc(C(=O)O)cc2)cc1)CCl | 30.5 µM | 17 µM | 34.3 µM | 41.6 µM | 7.03 µM | 16.1 µM | 31.6 µM | 17.5 µM | 34.3 µM | 32.8 µM | 17.7 µM | 4.45 µM | 3.36 µM | 15 µM | 17.1 µM | 2.62 µM | 16.6 µM | 4.26 µM | 26.4 µM | 14 µM
9 | COc1cc(C(=O)c2cc(C)c3[nH]c4ccc(C)cc4c3c2C)cc(OC)c1OC | > 100 µM | < 0.01 µM | > 100 µM | > 100 µM | > 100 µM | < 0.01 µM | > 100 µM | < 0.01 µM | – | > 40.5 µM | > 100 µM | < 0.01 µM | < 0.01 µM | – | < 0.01 µM | < 0.01 µM | < 0.01 µM | < 0.01 µM | > 100 µM | > 100 µM
10 | COc1ccc(/C=C/c2cc(OC)cc(=O)o2)cc1 | > 100 µM | – | > 100 µM | > 100 µM | > 100 µM | – | > 100 µM | – | > 100 µM | > 100 µM | > 100 µM | – | – | – | – | – | – | – | > 100 µM | > 100 µM
11 | O=C1CSC(c2ccc(Cl)cc2Cl)N1c1ccc(F)cc1 (stereo unspecified) | 38 µM | 16 µM | 29.9 µM | 38.2 µM | 19 µM | 17.2 µM | 31.1 µM | 18.3 µM | 37.2 µM | 42.7 µM | 27 µM | 18.5 µM | 19.8 µM | 18.9 µM | 18.2 µM | 2.19 µM | 24.9 µM | 14 µM | 43.4 µM | 45.7 µM
12 | O=C(CCC1OCCO1)Nc1cc(NCc2ccccc2)ccc1OCc1ccccc1 | 49.7 µM | – | > 100 µM | > 100 µM | 45.7 µM | – | > 100 µM | – | > 100 µM | 71.3 µM | > 100 µM | – | – | – | – | – | – | – | 81.5 µM | > 100 µM
13 | COc1ccc(CCN2COc3c([C@@H](C)CCC=C(C)C)ccc(C)c3C2)cc1OC | 3.82 µM | 2.06 µM | 4.3 µM | 21.6 µM | 21.1 µM | 6.11 µM | 20.2 µM | 2.02 µM | 6.56 µM | 12.1 µM | 11 µM | 3.69 µM | 3.7 µM | 1.88 µM | 8.64 µM | 3.49 µM | 2.73 µM | 3.29 µM | > 100 µM | 93.5 µM
